From US20250092039A1, “GLUTARIMIDE-CONTAINING PAN-KRAS-MUTANT DEGRADER COMPOUNDS AND USES THEREOF” (Tiger Biotherapeutics Inc., priority 2022, published 2025)

Columns and labels:
SW620 cells = assay: 3D cell growth inhibition of SW620 cells carrying endogenous KRAS G12V mutation (CellTiter-Glo 3D, GI50); format: cell-based; details: Homo sapiens, SW-620, 144 h; SW620 cells, 6 days; read-out: SW620 3D cell growth GI50
Method: The following day, the test compound was administered to the cells by using 1000× compound stock solution prepared in DMSO at various concentrations. 1000× compound stock solution was first diluted in culturing medium to 10×, then 10 μL compound medium was added to each well in the cell plates. After administration of the compound, the cells were then incubated at 37° C. for 6 days. Upon completion, the plates were equilibrated at room temperature for approximately 10 minutes. 100 μL of CellTiter-Glo® 3D Reagent (Promega) was added to each well. The plates were then incubated at room temperature for 30 minutes and luminescence was recorded by EnSpire plate reader (PerkinElmer).

KRAS G12V = KRAS G12V (Homo sapiens (Human), UniProt P01116, G12V); assay: KRAS G12V degradation in SW620 cells (Western blot, DC50); format: cell-based; details: 24 hours
Sequence of KRAS G12V (P01116-2 other isoform, or with tags, fused parts or gaps G12V): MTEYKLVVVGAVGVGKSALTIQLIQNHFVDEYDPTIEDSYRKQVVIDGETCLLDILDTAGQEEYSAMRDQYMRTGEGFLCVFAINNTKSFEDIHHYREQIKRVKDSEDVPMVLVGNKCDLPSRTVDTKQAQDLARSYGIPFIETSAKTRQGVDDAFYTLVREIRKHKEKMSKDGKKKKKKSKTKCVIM
Method: SW620 (KRAS G12V homozygous), AsPC1 (KRAS G12D homozygous), MIA PaCa2 (KRAS G12C homozygous), A549 (KRAS G12S homozygous) and MCF7 (KRAS WT) cells were obtained from American Type Culture Collection (ATCC). […] The following day, the test compound was administered to the cells by using 1000× compound stock solution prepared in DMSO at various concentrations. After administration of the compound, the cells were then incubated at 37° C. for 24 hours. Upon completion, the cells were washed with PBS and protein was collected in Laemmli sample buffer (1×; VWR International). Proteins in cell lysate were separated by SDS-PAGE and transferred to Odyssey nitrocellulose membranes (Licor) with iblot® dry blotting transfer system (ThermoFisher). Nonspecific binding was blocked by incubating membranes with Intercept Blocking Buffer (Licor) for 1 hour at room temperature with gentle shaking. […] After washing 3 times with TBS-T, the membranes were incubated with IRDye® 800CW goat anti-rabbit IgG (1:20,000, Licor) and IRDye® 680RD goat anti-mouse IgG (1:20,000, Licor) for 1 hour. After TBS-T washes, membranes were rinsed in TBS and Western blot images were acquired by Odyssey CLx (LI-COR Biosciences).
The signal intensity of target proteins was calculated using ImageStudio software. KRAS fluorescent intensity (FLU) from DMSO (vehicle) treatment was set as 100%. Relative KRAS expression level was determined by the following formula: […]
The percentage of KRAS expression was calculated using Microsoft Excel. The half-maximal degradation concentration (DCso) values were generated by GraphPad Prism (Version 9) using the dose-response equation of variable slope (four parameters).

KRAS-G12V/RAF1 = KRAS-G12V/RAF1 (Homo sapiens (Human), UniProt P01116, G12V); assay: KRAS/RAF1 binding inhibition assay (AlphaScreen)
Sequence of KRAS-G12V/RAF1 (P01116-2 other isoform, or with tags, fused parts or gaps G12V): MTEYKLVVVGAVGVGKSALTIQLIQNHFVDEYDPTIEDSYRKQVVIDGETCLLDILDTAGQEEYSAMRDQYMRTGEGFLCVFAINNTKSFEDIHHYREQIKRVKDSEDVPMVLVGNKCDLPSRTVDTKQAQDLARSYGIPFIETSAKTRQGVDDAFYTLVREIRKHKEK
Method: Binding affinity against GTP-bound KRAS of the compounds disclosed herein was measured by monitoring the interaction of guanosine 5′-[β,γ-imido]triphosphate-bound (GppNHp-bound) KRAS with the RBD domain of RAF1 in the presence of the test compound. […] The test compounds in 2% DMSO (final concentration) at various concentrations were then added to the reaction mixture and incubated for 60 minutes at 4° C.
Raw ALphaScreen data were converted to a percentage of inhibition (relative to DMSO) using the following equations: • a) For a given test compound concentration X: […]
The IC50 values were determined by nonlinear regression of plots of [inhibitor] vs. percentage of inhibition with variable slope, analyzed using GraphPad Prism (Version 9).

SMILES | GI50 (SW620 cells) | DC50 (KRAS G12V) | IC50 (KRAS-G12V/RAF1)
Cc1cc(N)nc(-c2c(Cl)c3c4c(nc(OCC5(CN6CCC7(CC6)CC(CN6CCN(c8ccc9c(c8)CN([C@H]8CCC(=O)NC8=O)C9=O)CC6)C7)CC5)nc4c2F)N(C(C)c2cccnc2N)CCO3)c1C(F)(F)F (stereo partly drawn) [Compound 5, (3S)-3-(5-(4-((7-((1-(((9-(6-amino-4-methyl-3-(trifluoromethyl)pyridin-2-yl)-4-(1-(2-aminopyridin-3-yl)ethyl)-8-chloro-10-fluoro-5,6-dihydro-4H-[1,4]oxazepino[5,6,7-de]quinazolin-2-yl)oxy)methyl)cyclopropyl)methyl)-7-azaspiro[3.5]nonan-2-yl)methyl)piperazin-1-yl)-1-oxoisoindolin-2-yl)piperidine-2,6-dione] | > 100 nM | > 100 nM | 
CCc1c(F)ccc2cc(O)cc(-c3ncc4c(N5CCC[C@@](C)(O)C5)nc(OCC5(CN6CCC(N7CC(CN8CCN(c9ccc(C%10CCC(=O)NC%10=O)cc9)CC8)C7)CC6)CC5)nc4c3F)c12 (stereo partly drawn) [Compound 21, 3-(4-(4-((1-(1-((1-(((7-(8-ethyl-7-fluoro-3-hydroxynaphthalen-1-yl)-8-fluoro-4-((R)-3-hydroxy-3-methylpiperidin-1-yl)pyrido[4,3-d]pyrimidin-2-yl)oxy)methyl)cyclopropyl)methyl)piperidin-4-yl)azetidin-3-yl)methyl)piperazin-1-yl)phenyl)piperidine-2,6-dione] | > 100 nM | > 100 nM | 
CCc1c(F)ccc2cc(O)cc(-c3ncc4c(N5CCC[C@@](C)(O)C5)nc(OCC5(CN6CCC7(CC6)CC(CN6Cc8ccc(C9CCC(=O)NC9=O)cc8C6)C7)CC5)nc4c3F)c12 (stereo partly drawn) [Compound 34, 3-(2-((7-((1-(((7-(8-ethyl-7-fluoro-3-hydroxynaphthalen-1-yl)-8-fluoro-4-((R)-3-hydroxy-3-methylpiperidin-1-yl)pyrido[4,3-d]pyrimidin-2-yl)oxy)methyl)cyclopropyl)methyl)-7-azaspiro[3.5]nonan-2-yl)methyl)isoindolin-5-yl)piperidine-2,6-dione] | > 100 nM | > 100 nM | 
C[C@@]1(O)CCCN(c2nc(OCC3(CN4CCC5(CCC(N6CCN(c7ccc8c(c7)CN([C@H]7CCC(=O)NC7=O)C8=O)CC6)CC5)CC4)CC3)nc3c(F)c(-c4cc(N)cc5ccc(F)c(F)c45)ncc23)C1 [Compound 35, (S)-3-(5-(4-(3-((1-(((7-(3-amino-7,8-difluoronaphthalen-1-yl)-8-fluoro-4-((R)-3-hydroxy-3-methylpiperidin-1-yl)pyrido[4,3-d]pyrimidin-2-yl)oxy)methyl)cyclopropyl)methyl)-3-azaspiro[5.5]undecan-9-yl)piperazin-1-yl)-1-oxoisoindolin-2-yl)piperidine-2,6-dione] | > 100 nM | > 100 nM | 
CCc1c(F)ccc2cc(O)cc(-c3ncc4c(N5CCC[C@@](C)(OC)C5)nc(OCC5(CN6CCC7(CC6)CC(CN6CCN(c8ccc9c(c8)CN([C@H]8CCC(=O)NC8=O)C9=O)CC6)C7)CC5)nc4c3F)c12 [Compound 36, (S)-3-(5-(4-((7-((1-(((7-(8-ethyl-7-fluoro-3-hydroxynaphthalen-1-yl)-8-fluoro-4-((R)-3-methoxy-3-methylpiperidin-1-yl)pyrido[4,3-d]pyrimidin-2-yl)oxy)methyl)cyclopropyl)methyl)-7-azaspiro[3.5]nonan-2-yl)methyl)piperazin-1-yl)-1-oxoisoindolin-2-yl)piperidine-2,6-dione] | > 100 nM | > 100 nM | 
CCc1c(F)ccc2cc(O)cc(-c3ncc4c(N5CCC[C@@](C)(O)C5)nc(OCC5(CN6CCC7(CC6)CC(F)(C6CCN(c8ccc9c(c8)CN(C8CCC(=O)NC8=O)C9=O)CC6)C7)CC5)nc4c3F)c12 (stereo partly drawn) [Compound 185, 3-(5-(4-(7-((1-(((7-(8-ethyl-7-fluoro-3-hydroxynaphthalen-1-yl)-8-fluoro-4-((R)-3-hydroxy-3-methylpiperidin-1-yl)pyrido[4,3-d]pyrimidin-2-yl)oxy)methyl)cyclopropyl)methyl)-2-fluoro-7-azaspiro[3.5]nonan-2-yl)piperidin-1-yl)-1-oxoisoindolin-2-yl)piperidine-2,6-dione] |  | > 100 nM | 20 to 200 nM
